Measured values taken from PMC9792171, “Design and synthesis of new thiazolidinone/uracil derivatives as antiproliferative agents targeting EGFR and/or BRAF^V600E” (Frontiers in Chemistry, 2022).

Assays:
EGFR = biological target: T1, EGFR (Homo sapiens, UniProt P00533); assay: EGFR inhibitory assay (EGFR-TK, DELFIA/time-resolved fluorometry); assay type: biochemical; conditions: for IC50: read-out: EGFR inhibition IC50 ± SEM
T1 construct: EGFR cytoplasmic domain (EGFR-CD, amino acids 645–1186); His6 (N); made in house; host or cells: Sf-9 insect cells (baculovirus; pBlueBacHis2B and pFASTBacHTc)
T1 sequence (P00533 669-1210): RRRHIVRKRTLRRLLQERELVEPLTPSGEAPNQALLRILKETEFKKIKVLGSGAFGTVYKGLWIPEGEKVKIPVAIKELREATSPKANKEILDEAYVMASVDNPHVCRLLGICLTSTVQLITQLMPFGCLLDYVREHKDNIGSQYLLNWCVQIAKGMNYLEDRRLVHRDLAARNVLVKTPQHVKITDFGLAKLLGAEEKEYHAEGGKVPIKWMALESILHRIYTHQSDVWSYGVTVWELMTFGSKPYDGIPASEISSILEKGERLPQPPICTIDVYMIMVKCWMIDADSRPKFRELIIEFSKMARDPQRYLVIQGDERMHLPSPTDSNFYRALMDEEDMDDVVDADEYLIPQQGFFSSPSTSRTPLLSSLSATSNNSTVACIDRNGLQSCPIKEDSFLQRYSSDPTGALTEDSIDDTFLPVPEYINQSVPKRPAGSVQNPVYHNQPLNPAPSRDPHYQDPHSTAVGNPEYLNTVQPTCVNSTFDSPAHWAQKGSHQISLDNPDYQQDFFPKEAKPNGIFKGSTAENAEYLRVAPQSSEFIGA
Method: 5ʹ upstream to the EGFR sequence comprised a sequence that encoded (His)6. Sf-9 cells were infected for 72h for protein expression. The pellets of Sf-9 cells were solubilized in a buffer containing sodium vanadate (100 µM), aprotinin (10 µg/mL), triton (1%), HEPES buffer (50mM), ammonium molybdate (10 µM), benzamidine HCl (16 µg/mL), NaCl (10 mM), leupeptin (10 µg/mL) and pepstatin (10 µg/mL) at 0°C for 20 min at pH 7.4, followed by centrifugation for 20 min. To eliminate the non-specifically bound material, a Ni-NTA super flow packed column was used to pass through and wash the crude extract supernatant first with 10 mM and then with 100 mM imidazole. Histidine-linked proteins were first eluted with 250 and then with 500 mM imidazole after dialysis against NaCl (50 mM), HEPES (20 mM), glycerol (10%) and 1 µg/mL each of aprotinin, leupeptin and pepstatin for 120 min. The purification was performed either at 4 °C or on ice. To record autophosphorylation level, EGFR kinase assay was carried out based on DELFIA/Time-Resolved Fluorometry. The compounds were first dissolved in DMSO absolute, after dilution to appropriate concentration using HEPES (25 mM) at pH 7.4. Each compound (10 µL) was incubated with recombinant enzyme (10 µL, 5 ng for EGFR, 1:80 dilution in 100 mM HEPES) for 10 min at 25 °C, after the addition of 5X buffer (10 µL, containing 2 mM MnCl2, 100 µM Na3VO4, 20 mM HEPES and 1 mM DTT) and ATP-MgCl2 (20 µL, containing 0.1 mM ATP and 50 mM MgCl2) and incubation for 1h. The negative and positive controls were included in each plate by the incubation of enzyme either with or without ATP-MgCl2. The liquid was removed after incubation and the plates were washed thrice using wash buffer. Europium-tagged antiphosphotyrosine antibody (75 µL, 400 ng) was added to each well followed by incubation of 1h and then washing of the plates using buffer. The enhancement solution was added to each well and the signal was recorded at excitation and emission wavelengths of 340 at 615 nm. The autophosphorylation percentage inhibition by compounds was calculated using the following equation: […]

[1] = system: A-549 (epithelial cancer cell line); assay: Antiproliferative MTT assay, A-549; assay type: cell-based; conditions: Homo sapiens, A549; A-549, MTT; read-out: Antiproliferative activity IC50 ± SEM (nM) A-549
Method: Using the MTT assay ([Abdelrahman et al., 2017]; [El-Sherief et al., 2018]) and doxorubicin as the reference drug, 3a-f and 5a-l were tested for antiproliferative activity against four human cancer cell lines: Panc-1 (pancreas cancer cell line), MCF-7 (breast cancer cell line), HT-29 (colon cancer cell line), and A-549 (epithelial cancer cell line).
To explore the antiproliferative potential of compounds MTT assay was performed according to previously reported procedure (El-Sherief, H.A.M., et al., 2018; Abdelrahman, M. H., et al., 2017) using different cell lines to explore the antiproliferative potential of compounds propidium iodide fluorescence assay was performed using different cell lines. To calculate the total nuclear DNA, a fluorescent dye (propidium iodide, PI) is used which can attach to the DNA, thus offering a quick and precise technique. PI cannot pass through the cell membrane and its signal intensity can be considered as directly proportional to quantity of cellular DNA. Cells whose cell membranes are damaged or have changed permeability are counted as dead ones. The assay was performed by seeding the cells of different cell lines at a density of 3000-7500 cells/well (in 200µl medium) in culture plates followed by incubation for 24h at 37 °C in humidified 5% CO2/95% air atmospheric conditions. The medium was removed; the compounds were added to the plates at 10 µM concentrations (in 0.1% DMSO) in triplicates, followed by incubation for 48 h. DMSO (0.1%) was used as control. After incubation, medium was removed followed by the addition of PI (25 µl, 50µg/mL in water/medium) to each well of the plates. At -80 °C, the plates were allowed to freeze for 24 h, followed by thawing at 25 °C. A fluorometer (Polar-Star BMG Tech) was used to record the readings at excitation and emission wavelengths of 530 and 620 nm for each well. The percentage cytotoxicity of compounds was calculated using the following formula: […]

SMILES | fold less potent than erlotinib (EGFR IC50) (EGFR; ratio of EGFR IC50 values) [fold] | IC50 (EGFR) [nM] | IC50 [1] [nM] | melting point [°C]
COc1cccc(NC(=S)Nc2c[nH]c(=O)[nH]c2=O)c1 [Compound 3c, 1-(2,4-Dioxo-1,2,3,4-tetrahydropyrimidin-5-yl)-3-(3-methoxyphenyl)thiourea] | 1.6 | 125 ± 11 | 1800 ± 200 | 350 to 352
COC(=O)/C=C1\S/C(=N\c2c[nH]c(=O)[nH]c2=O)N(c2ccc(C)cc2)C1=O [Compound 5h, (Z)-Methyl-2-((Z)-2-((2,4-dioxo-1,2,3,4-tetrahydropyrimidin-5-yl)imino)-4-oxo-3-(p-tolyl)-thiazolidin-5-ylidene)acetate] | – | 112 ± 10 | 1400 ± 100 | 308 to 310
COC(=O)/C=C1\S/C(=N\c2c[nH]c(=O)[nH]c2=O)N(Cc2ccccc2)C1=O [Compound 5j, (Z)-Methyl-2-((Z)-3-benzyl-2-((2,4-dioxo-1,2,3,4-tetrahydropyrimidin-5-yl)imino)-4-oxothiazolidin-5-ylidene)acetate] | – | 87 ± 5 | 1100 ± 100 | 306 to 308

Other lines, results leading:

fold less potent than erlotinib (EGFR IC50) (EGFR; ratio of EGFR IC50 values) [fold] | IC50 (EGFR) [nM] | IC50 [1] [nM] | melting point [°C] | SMILES
– | 91 ± 7 | 1200 ± 100 | – | CCOC(=O)/C=C1\S/C(=N\c2c[nH]c(=O)[nH]c2=O)N(c2ccc(C)cc2)C1=O [Compound 5b, (Z)-Ethyl-2-((Z)-2-((2,4-dioxo-1,2,3,4-tetrahydropyrimidin-5-yl)imino)-4-oxo-3-(p-tolyl)thiazolidin-5-ylidene)acetate]
– | 115 ± 10 | 1500 ± 100 | 330 to 332 | CCOC(=O)/C=C1\S/C(=N\c2c[nH]c(=O)[nH]c2=O)N(c2cccc(OC)c2)C1=O [Compound 5c, (Z)-Ethyl-2-((Z)-2-((2,4-dioxo-1,2,3,4-tetrahydropyrimidin-5-yl)imino)-3-(3-methoxyphenyl)-4-oxo-thiazolidin-5-ylidene)acetate]
– | 96 ± 7 | 1300 ± 100 | 322 to 324 | COC(=O)/C=C1\S/C(=N\c2c[nH]c(=O)[nH]c2=O)N(c2cccc(OC)c2)C1=O [Compound 5i, (Z)-Methyl-2-((Z)-2-((2,4-dioxo-1,2,3,4-tetrahydropyrimidin-5-yl)imino)-3-(3-methoxyphenyl)-4-oxothiazolidin-5-ylidene)acetate]
